Laboratory results taken from publication PMC7747594, “Protease-activated receptor-2 ligands reveal orthosteric and allosteric mechanisms of receptor inhibition” (Communications Biology, 2020).
Where two headings read alike, the source gives them in different places. Blank lines part the entries; values can stand above or below the compound they belong to.

Columns and labels:
hPAR2 [1] = biological target: T1, hPAR2 (Homo sapiens, UniProt P55085); assay: Radiolabelled competition binding assay against [^3H]-GB110 on HEKexpi293F membranes; design: expressed in transfected cells
T1 sequence (P55085 26-397): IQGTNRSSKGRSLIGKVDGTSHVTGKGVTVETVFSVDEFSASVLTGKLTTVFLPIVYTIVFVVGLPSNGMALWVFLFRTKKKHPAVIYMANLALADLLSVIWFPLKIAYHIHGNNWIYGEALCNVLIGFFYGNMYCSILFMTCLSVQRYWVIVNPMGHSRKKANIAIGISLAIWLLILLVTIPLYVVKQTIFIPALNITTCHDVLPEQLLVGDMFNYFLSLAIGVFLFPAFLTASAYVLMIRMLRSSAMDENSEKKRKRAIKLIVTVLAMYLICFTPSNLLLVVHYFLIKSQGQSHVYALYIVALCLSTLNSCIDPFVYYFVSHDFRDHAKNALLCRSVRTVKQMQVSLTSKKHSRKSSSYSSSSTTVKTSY
Method: The reaction was then filtered through 0.5% PEI-coated filter plates using a BiomekFX. The filter plate was then dried for 1 h at 50 °C. Scintillation fluid was added to each well, before reading the plate in a Microbeta reader.
(§1) Binding data were analysed using the One site – Fit Ki model in GraphPad Prism 8 (GraphPad Software) to determine binding affinity. Pharmacology in vitro potency data was analysed with a 4-parameter logistic fit using the equation y = Bottom + (Top − Bottom)/[…] where y is the response, x is the 10-logarithm of the drug concentration, Bottom is no response and Top is full response in GraphPad Prism 8 or Genedata Screener (Genedata). pEC50 and pIC50 data are presented as mean ± standard error of the mean (s.e.m.) derived from the number of independent experiments stated. Schild slope analysis was calculated using Graphpad Prism 8 Gaddum/Schild EC50 global fitting (shared model parameters between all data sets) competitive model. The most rigorous method for quantifying agonist-antagonist interactions is to globally fit the Gaddum/Shild model to all agonist dose–response curves. Schild slope quantifies the shifts in agonist response in the presence of antagonist, a Schild slope of 1 indicates the antagonist is competitive and extra-sum-of-squares F-test (p < 0.05) was used to compare the calculated Schild slope against a hypothetical Schild slope of 1. […] The relative activity was calculated using (EmaxEC50’)/(Emax’EC50) with the Hill slope help constant at 1. EC50’ and Emax’ denote the EC50 and Emax in the absence of allosteric modulator, while EC50 and Emax denote those measured in the presence of allosteric modulator. When the Hill slope = 1, the relative activity plot approaches an asymptote corresponding to the estimate of the γ value.

rat PAR2 = biological target: T2, rat PAR2 (Rattus norvegicus, UniProt Q63645); assay: Ca^2+ flux assay, inhibition of SLIGRL-NH2 activation in rat KNRK cells; type: cell-based
T2 construct: a rat KNRK cell line with endogenous expression of rat PAR2; host or cells: rat KNRK cells
T2 sequence (Q63645 26-397): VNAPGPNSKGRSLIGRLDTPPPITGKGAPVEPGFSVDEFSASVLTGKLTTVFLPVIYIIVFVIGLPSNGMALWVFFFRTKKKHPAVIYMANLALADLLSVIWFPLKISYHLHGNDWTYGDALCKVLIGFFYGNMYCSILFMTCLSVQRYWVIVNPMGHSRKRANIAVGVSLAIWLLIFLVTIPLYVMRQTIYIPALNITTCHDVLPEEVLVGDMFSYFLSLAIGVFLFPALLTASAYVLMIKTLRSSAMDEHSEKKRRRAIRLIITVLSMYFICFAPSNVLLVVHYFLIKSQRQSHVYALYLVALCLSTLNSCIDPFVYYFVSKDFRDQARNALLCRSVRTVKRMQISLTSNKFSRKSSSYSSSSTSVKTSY

hPAR2 [2] = biological target: T1, hPAR2; assay: Ca^2+ flux assay (FLIPR), inhibition of SLIGRL-NH2 activation in 1321N1-hPAR2 cells; type: cell-based
Method: Cells were loaded with Fluo-8 NW calcium dye (AAT Bioquest) for 30 min at 37 °C before compounds in Hank’s balanced salt solution (HBSS, ThermoFisher Scientific) with 20 mM HEPES (ThermoFisher Scientific), 0.1% bovine serum albumin (BSA, Sigma) and 0.5% DMSO were added and simultaneously evaluated for changes in intracellular [Ca^2+] using FLIPR TETRA (Molecular Devices) to detect agonism. For each concentration, the difference between the maximum peak Ca^2+ response and baseline response is reported. […] Antagonism experiments were also carried out on 1321N1-PAR2[WT], 1321N1-PAR2[F154A], and 1321N1-PAR2[G157C] as described. Experiments with trypsin in 1321N1-hPAR2 cells were performed in the presence of 1 µM Vorapaxar (Chemtronica) to remove any interference of PAR1 activity. […] Antagonism experiments for CHO-hPAR2 and HT-29 cells were performed in 96-well plates at 30,000 cells/well. Cells were loaded with Fluo-3 AM calcium dye (Sigma-Aldrich) for 60 min at 37 °C in HBSS with 1% FBS, 0.2% pluronic acid, 20 mM HEPES and 2.5 mM probenecid prior to the addition of antagonist. The antagonist was pre-incubated for 60 min at 37 °C followed by the addition of bovine trypsin (30 nM) at EC80. Intracellular [Ca^2+] flux was measured using FLIPR TETRA (Molecular Devices) and the difference between the maximum peak Ca^2+ response and baseline response is reported.
as §1, with “The most rigorous method for quantifying agonist-antagonist interactions is to globally fit the Gaddum/Shild model to all agonist dose–response curves.” left out

[3] = SLIGRL-NH2, rat PAR2 in KNRK cells, mean ± s.e.m., read-out: Ca^2+ flux (rPAR2) pIC50 (converted)

remaining binding at 100 µM (hPAR2 [1]; 2 h, log [compound],M -4, individual data points, read-out: specific binding of [^3H]-GB110, Fig 2b source data): 19.6%
remaining binding at 33.3 µM (hPAR2 [1]; 2 h, log [compound],M -4.47756, individual data points, read-out: specific binding of [^3H]-GB110, Fig 2b source data): 10.5%
remaining binding at 3.7 µM (hPAR2 [1]; 2 h, log [compound],M -5.4318, individual data points, read-out: specific binding of [^3H]-GB110, Fig 2b source data): 11.5%
remaining binding at […] (hPAR2 [1]; 2 h, log [compound],M -5.91009, individual data points, read-out: specific binding of [^3H]-GB110, Fig 2b source data): 15.9%
remaining binding at 0.0152 µM (hPAR2 [1]; 2 h, log [compound],M -7.81816, individual data points, read-out: specific binding of [^3H]-GB110, Fig 2b source data): 88%
remaining binding at 0.00508 µM (hPAR2 [1]; 2 h, log [compound],M -8.29414, individual data points, read-out: specific binding of [^3H]-GB110, Fig 2b source data): 97.4%
remaining binding at 0.00169 µM (hPAR2 [1]; 2 h, log [compound],M -8.77211, individual data points, read-out: specific binding of [^3H]-GB110, Fig 2b source data): 99.3%
remaining binding at 0.000565 µM (hPAR2 [1]; 2 h, log [compound],M -9.24795, individual data points, read-out: specific binding of [^3H]-GB110, Fig 2b source data): 105%
Ki (hPAR2 [1]; [3H]-GB110, earlier manuscript version quoted by reviewer, read-out: Ki): 63 nM
Compound: CNC(=O)[C@H]1CC[C@@H](NC(=O)[C@H](CC2CCCCC2)NC(=O)c2cn(Cc3ccccc3)nn2)c2ccccc21 [AZ2429]

IC50 (rat PAR2; [3]): 5.01 nM
IC50 (hPAR2 [2]; SLIGRL-NH2, 1321N1-hPAR2 cells, mean ± s.e.m., read-out: Ca^2+ flux (hPAR2) pIC50 (converted)): 5.01 nM
Compound: C[C@@H](C1CCCCC1)n1c(-c2cc3c(cc2Br)OCO3)nc2cc(C(=O)Nc3ccncc3)ccc21 [AZ2623]

IC50 (rat PAR2; [3]): 3.16 nM
Ki (hPAR2 [1]; against [^3H]-GB110, HEKexpi293F membranes expressing hPAR2, mean ± s.e.m., read-out: Competition binding pKi (converted)): 12.6 nM
IC50 (hPAR2 [2]; Ca^2+ assay, earlier manuscript version quoted by reviewer, read-out: IC50): 2.8 nM
remaining activity at 0.001319 µM (hPAR2 [2]; log[compound], M -8.87976, individual data points, read-out: SLIGRL-NH2 Ca^2+ mobilisation, antagonist response, Fig 1c source data): 77.4%
Compound: C[C@@H](C1CCCCC1)n1c(-c2cc3c(cc2Br)OCO3)nc2cc(C(=O)Nc3ccc(C#N)cc3)ccc21 [AZ3451]

Compound: CCCc1cc(F)ccc1C(O)c1ncc[nH]1 (stereo not shown) [AZ8838]
IC50 (rat PAR2): 5010 nM
Ki (hPAR2 [1]): 398 nM
IC50 (hPAR2 [2]): 2000 nM
remaining activity at 1.318 µM (hPAR2 [2]; read-out: SLIGRL-NH2 Ca^2+ mobilisation, antagonist response, Fig 1c source data, log[compound], M -5.88008, individual data points): 77.3%
remaining activity at 0.4168 µM (hPAR2 [2]; read-out: SLIGRL-NH2 Ca^2+ mobilisation, antagonist response, Fig 1c source data, log[compound], M -6.38007, individual data points): 83%
remaining activity at 0.1318 µM (hPAR2 [2]; read-out: SLIGRL-NH2 Ca^2+ mobilisation, antagonist response, Fig 1c source data, log[compound], M -6.88008, individual data points): 101%
remaining activity at 0.04169 µM (hPAR2 [2]; read-out: SLIGRL-NH2 Ca^2+ mobilisation, antagonist response, Fig 1c source data, log[compound], M -7.37997, individual data points): 90.3%
remaining activity at 0.01318 µM (hPAR2 [2]; read-out: SLIGRL-NH2 Ca^2+ mobilisation, antagonist response, Fig 1c source data, log[compound], M -7.88008, individual data points): 91.2%
remaining activity at 0.00417 µM (hPAR2 [2]; read-out: SLIGRL-NH2 Ca^2+ mobilisation, antagonist response, Fig 1c source data, log[compound], M -8.37986, individual data points): 97.2%
remaining activity at 0.001319 µM (hPAR2 [2]; read-out: SLIGRL-NH2 Ca^2+ mobilisation, antagonist response, Fig 1c source data, log[compound], M -8.87976, individual data points): 102%
